Assay results from US9789165B2 (Sanofi, priority 2013, dated 2017).
pEC50: −log10 of the molar value. Values after ≈ are worked out from the molar mass of the structure shown. Like-named read-outs stand apart in the source and are kept apart here. Square brackets hold non-standard residues; d marks the D form. Peptide text beside a SMILES is read from it. Nle = CCCC[C@H](N)C(=O)O; Aib = CC(C)(N)C(=O)O

Tests used:
[1] = molecular target: T1, human glucagon receptor (hGLUC R) (Homo sapiens, UniProt P47871); experiment: cAMP response of HEK-293 cells stably expressing human glucagon receptor (HTRF); type: cell-based; settings: Table 6; cAMP formation
T1 construct: expressed in transfected cells
T1 sequence (P47871 26-477): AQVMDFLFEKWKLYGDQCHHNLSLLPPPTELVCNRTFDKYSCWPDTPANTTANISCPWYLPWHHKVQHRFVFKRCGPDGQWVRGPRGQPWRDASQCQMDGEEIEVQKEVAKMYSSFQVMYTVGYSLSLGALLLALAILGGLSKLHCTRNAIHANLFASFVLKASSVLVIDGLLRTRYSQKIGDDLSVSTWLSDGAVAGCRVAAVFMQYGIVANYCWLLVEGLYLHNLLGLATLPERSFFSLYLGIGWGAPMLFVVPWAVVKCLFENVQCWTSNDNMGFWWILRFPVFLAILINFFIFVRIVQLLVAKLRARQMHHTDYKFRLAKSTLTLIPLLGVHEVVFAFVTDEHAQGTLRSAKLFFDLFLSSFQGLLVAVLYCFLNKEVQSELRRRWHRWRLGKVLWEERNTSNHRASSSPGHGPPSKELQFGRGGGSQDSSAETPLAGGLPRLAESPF
Protocol: cAMP content of cells was determined using a kit from Cisbio Corp. (cat. no. 62AM4PEC) based on HTRF (Homogenous Time Resolved Fluorescence). For preparation, cells were split into T175 culture flasks and grown overnight to near confluency in medium (DMEM/10% FBS). Medium was then removed and cells washed with PBS lacking calcium and magnesium, followed by proteinase treatment with accutase (Sigma-Aldrich cat. no. A6964). Detached cells were washed and resuspended in assay buffer (1×HBSS; 20 mM HEPES, 0.1% BSA, 2 mM IBMX) and cellular density determined. They were then diluted to 400000 cells/ml and 25 μl-aliquots dispensed into the wells of 96-well plates. For measurement, 25 μl of test compound in assay buffer was added to the wells, followed by incubation for 30 minutes at room temperature.

[2] = Solubility testing in buffer systems, HPLC-UV of supernatant; type: physicochemical; settings: buffer system
Protocol: Prior to the testing of solubility and stability of a peptide batch, its content was determined. Therefore, two parameters were investigated, its purity (HPLC-UV) and the amount of salt load of the batch (ion chromatography).
Therefore, solutions from solid samples were prepared in different buffer systems with a concentration of 1.0 mg/mL compound based on the previously determined content. HPLC-UV was performed after 2 h of gentle agitation from the supernatant, which was obtained by 20 min of centrifugation at 4000 rpm.
This analysis also served as starting point (t0) for the stability testing.
(§1) As HPLC/UPLC method, method D or E has been used.

[3] = type: physicochemical; settings: buffer, 168 h
Protocol: After that time course, the sample was centrifuged for 20 min at 4000 rpm and the supernatant was analysed with HPLC-UV.
For determination of the amount of the remaining peptide, the peak areas of the target compound at t0 and t7 were compared, resulting in “% remaining peptide”, following the equation % remaining peptide=[(peak area peptide t7)×100]/peak area peptide t0.
The chemical stability is expressed as “% remaining peptide”.
as §1

[4] = Pharmacokinetic testing in mice, plasma LC/MS; type: in vivo; settings: mouse, sc, 1 mg/kg s.c.
Protocol: Mice were dosed 1 mg/kg subcutaneously (s.c.). The mice were sacrified and blood samples were collected after 0.25, 0.5, 1, 2, 4, 8, 16 and 24 hours post application. Plasma samples were analyzed after protein precipitation via liquid chromatography mass spectrometry (LC/MS). PK parameters and half-life were calculated using WinonLin Version 5.2.1 (non-compartment model).
Pharmacokinetic profiles were determined as described in Methods.

[5] = test system: female diabetic dbdb-mice; experiment: Glucose lowering in non-fasted female diabetic dbdb-mice; type: in vivo; settings: 100 μg/kg s.c., baseline on average 29 mmol/l
Protocol: Female diabetic dbdb-mice (BKS.Cg−+Leprdb/+Leprdb/OlaHsd) 10 weeks of age at study start were used. Mice were habituated to feeding and housing conditions for at least 2 weeks. 7 days prior to study start, HbA1c were determined to allocate mice to groups, aiming to spread low, medium and high HbA1c-values and in consequence the group-means (n=8), as equally as possible. On the day of study, food was removed, directly before sampling for baseline glucose assessment (t=0 min). Immediately afterwards, compounds or vehicle (phosphor buffered saline, PBS) were administered subcutaneously, 100 μg/kg, 10 ml/kg. Afterwards, blood samples were drawn by tail tip incision at 15, 30, 60, 90, 120, 150, 180, 240, 360, 480 min and 24 h. Food was re-offered after the 480 min-sampling.
Data were analysed by 2-W-ANOVA on repeated measurements, followed by Dunnett's test as post-hoc assessment, level of significance p<0.05.
Female dbdb-mice, received 100 μg/kg of SEQ ID NO: 8, SEQ ID NO: 9 or phosphate buffered saline (vehicle control) subcutaneously, at time 0 min.

[6] = pH 4.5, target concentration 1.0 mg/mL, read-out: Solubility (pH 4.5)
[7] = pH 7.4, target concentration 1.0 mg/mL, read-out: Solubility (pH 7.4)

Structure (SMILES)	pEC50 [1]	solubility at 2 h [2, 6]	solubility at 2 h [2, 7]	Stability (pH 4.5), % remaining peptide [3]	Stability (pH 7.4), % remaining peptide [3]	Cmax [4]	half-life [4]	maximal effect, glucose reduction [5]
CC[C@H](C)[C@H](NC(=O)[C@H](CO)NC(=O)[C@H](CC(C)C)NC(=O)[C@H](CC(=O)O)NC(=O)[C@H](CO)NC(=O)[C@@H](NC(=O)[C@H](Cc1ccccc1)NC(=O)[C@@H](NC(=O)CNC(=O)[C@H](CCC(=O)O)NC(=O)C(C)(C)NC(=O)[C@@H](N)Cc1ccc(O)cc1)[C@@H](C)O)[C@@H](C)O)C(=O)N[C@@H](CCC(N)=O)C(=O)N[C@@H](CCSC)C(=O)N[C@@H](CCC(=O)O)C(=O)N[C@@H](CCCCN)C(=O)N[C@@H](CCCNC(=N)N)C(=O)N[C@@H](C)C(=O)N[C@@H](C)C(=O)NC(C)(C)C(=O)N[C@@H](CCC(=O)O)C(=O)N[C@@H](Cc1ccccc1)C(=O)N[C@H](C(=O)N[C@@H](CCC(=O)O)C(=O)N[C@@H](Cc1c[nH]c2ccccc12)C(=O)N[C@@H](CC(C)C)C(=O)N[C@@H](CCCCN)C(=O)N[C@@H](C)C(=O)NCC(=O)NCC(=O)N1CCC[C@H]1C(=O)N[C@@H](CO)C(=O)N[C@@H](CO)C(=O)NCC(=O)N[C@@H](C)C(=O)N1CCC[C@H]1C(=O)N1CCC[C@H]1C(=O)N1CCC[C@H]1C(=O)N[C@@H](CO)C(N)=O)[C@@H](C)CC [SEQ ID NO: 8, Y-Aib-E-G-T-F-T-S-D-L-S-I-Q-M-E-K-R-A-A-Aib-E-F-I-E-W-L-K-A-G-G-P-S-S-G-A-P-P-P-S-NH2] (H-Y[Aib]EGTFTSDLSIQMEKRAA[Aib]EFIEWLKAGGPSSGAPPPS-NH2)	< 6.00	> 1000 µg/mL	> 1000 µg/mL	99%	92%	734 ng/mL	18 min	~12 mmol/L
CC[C@H](C)[C@H](NC(=O)[C@H](CO)NC(=O)[C@H](CC(C)C)NC(=O)[C@H](CC(=O)O)NC(=O)[C@H](CO)NC(=O)[C@@H](NC(=O)[C@H](Cc1ccccc1)NC(=O)[C@@H](NC(=O)CNC(=O)[C@H](CCC(=O)O)NC(=O)C(C)(C)NC(=O)[C@@H](N)Cc1ccc(O)cc1)[C@@H](C)O)[C@@H](C)O)C(=O)N[C@@H](CCC(N)=O)C(=O)N[C@@H](CC(C)C)C(=O)N[C@@H](CCC(=O)O)C(=O)N[C@@H](CCCCN)C(=O)N[C@@H](CCCNC(=N)N)C(=O)N[C@@H](C)C(=O)N[C@@H](C)C(=O)NC(C)(C)C(=O)N[C@@H](CCC(=O)O)C(=O)N[C@@H](Cc1ccccc1)C(=O)N[C@H](C(=O)N[C@@H](CCC(=O)O)C(=O)N[C@@H](Cc1c[nH]c2ccccc12)C(=O)N[C@@H](CC(C)C)C(=O)N[C@@H](CCCCN)C(=O)N[C@@H](C)C(=O)NCC(=O)NCC(=O)N1CCC[C@H]1C(=O)N[C@@H](CO)C(=O)N[C@@H](CO)C(=O)NCC(=O)N[C@@H](C)C(=O)N1CCC[C@H]1C(=O)N1CCC[C@H]1C(=O)N1CCC[C@H]1C(=O)N[C@@H](CO)C(N)=O)[C@@H](C)CC [SEQ ID NO: 9, Y-Aib-E-G-T-F-T-S-D-L-S-I-Q-L-E-K-R-A-A-Aib-EFIEWLKAGGPSSGAPPPSN H2] (H-Y[Aib]EGTFTSDLSIQLEKRAA[Aib]EFIEWLKAGGPSSGAPPPS-NH2)	–	875 µg/mL (≈ 213 µM)	892 µg/mL (≈ 217 µM)	100%	100%	–	–	~16 mmol/L
CCCC[C@H](NC(=O)[C@H](CCC(N)=O)NC(=O)[C@@H](NC(=O)[C@H](CO)NC(=O)[C@H](CC(C)C)NC(=O)[C@H](CC(=O)O)NC(=O)[C@H](CO)NC(=O)[C@@H](NC(=O)[C@H](Cc1ccccc1)NC(=O)[C@@H](NC(=O)CNC(=O)[C@H](CCC(=O)O)NC(=O)C(C)(C)NC(=O)[C@@H](N)Cc1ccc(O)cc1)[C@@H](C)O)[C@@H](C)O)[C@@H](C)CC)C(=O)N[C@@H](CCC(=O)O)C(=O)N[C@@H](CCCCN)C(=O)N[C@@H](CCCNC(=N)N)C(=O)N[C@@H](C)C(=O)N[C@@H](C)C(=O)NC(C)(C)C(=O)N[C@@H](CCC(=O)O)C(=O)N[C@@H](Cc1ccccc1)C(=O)N[C@H](C(=O)N[C@@H](CCC(=O)O)C(=O)N[C@@H](Cc1c[nH]c2ccccc12)C(=O)N[C@@H](CC(C)C)C(=O)N[C@@H](CCCCN)C(=O)N[C@@H](C)C(=O)NCC(=O)NCC(=O)N1CCC[C@H]1C(=O)N[C@@H](CO)C(=O)N[C@@H](CO)C(=O)NCC(=O)N[C@@H](C)C(=O)N1CCC[C@H]1C(=O)N1CCC[C@H]1C(=O)N1CCC[C@H]1C(=O)N[C@@H](CO)C(N)=O)[C@@H](C)CC [SEQ ID NO: 10, Y-Aib-E-G-T-F-T-S-D-L-S-I-Q-Nle-E-K-R-A-A-Aib-E-F-I-E-W-L-K-A-G-G-P-S-S-G-A-P-P-P-S-NH2] (H-Y[Aib]EGTFTSDLSIQ[Nle]EKRAA[Aib]EFIEWLKAGGPSSGAPPPS-NH2)	–	960 µg/mL (≈ 234 µM)	> 1000 µg/mL	100%	100%	–	–	–
